For this experiment, the system named is NQO1 specific enzyme activity in BEAS-2B cells. Nature of the experiment: BEAS-2B NQO1 MTT assay. It is filed as cell-based. Conditions: BEAS-2B cells, 48 hours with compound, MTT readout, read-out: EC50 of NQO1 specific activity induction. The text has this: NAD(P)H:quinone oxidoreductase 1 (NQO1), also called DT diaphorase, is a homodimeric FAD-containing enzyme that catalyzes obligatory NAD(P)H-dependent two-electron reductions of quinones and protects cells against the toxic and neoplastic effects of free radicals and reactive oxygen species arising from one-electron reductions. The transcription of NQO1 is finely regulated by NRF2, and thus NQO1 activity is a good marker for NRF2 activation. On day one, frozen BEAS-2B cells (ATCC) are thawed in a water bath, counted, and re-suspended at a concentration of 250,000 cells/mL. Fifty microliters of cells are plated in 384 well black clear-bottomed plates. Plates are incubated at 37° C., 5% CO2 overnight. On day two, plates are centrifuged and 50 nL of compound or controls are added to the cells. Plates are then incubated at 37° C., 5% CO2 for 48 hours. On day four, medium is aspirated from the plate and crude cell lysates are made by adding 13 uL of 1× Cell Signaling Technologies lysis buffer with 1 Complete, Mini, EDTA-free Protease Inhibitor Tablet (Roche) for each 10 mL of lysis buffer. After lysis plates are incubated for 20 minutes at room temperature. Two microliters of lysate are removed for use in Cell Titer Glo assay (Promega) and MTT cocktail is prepared (Prochaska et. al. 1998) for measurement of NQO1 activity. Fifty microliters of MTT cocktail is added to each well, plate is centrifuged, and analyzed on an Envision plate reader (Perkin Elmer) using Absorbance 570 nm label for 30 minutes. Product formation is measured kinetically and the EC50 of NQO1 specific activity induction is calculated by plotting the change in absorbance (Delta OD/min) versus the log of compound concentration followed by 3-parameter fitting.
A general note: Tetrazolium assays rely on reduction of a dye to a coloured formazan, in cell work by metabolically active cells.

Structures can show the parent of a compound that is named as a salt. Where two headings read alike, the source gives them in different places.

As usually defined, the EC50 is the concentration that produces a half-maximal response. For the molecule `Cc1ccc([C@@H](CC(=O)O)c2ccc3c(nnn3C)c2C)cc1CN1CCCC(n2cccn2)C1` (single isomer, unassigned; isomer 1) [Example 157], the EC50 lay within 100 to 1000 nM.

Regarding `CCC1CN(Cc2cc(C(CC(=O)O)c3ccc4c(nnn4C)c3C)ccc2C)Cc2c(Cl)cccc2O1` (stereo not drawn) [Example 88, 3-(3-((6-Chloro-2-ethyl-2,3-dihydrobenzo[f][1,4]oxazepin-4(5H)-yl)methyl)-4-methylphenyl)-3-(1,4-dimethyl-1H-benzo[d][1,2,3]triazol-5-yl)propanoic acid], under “Homo sapiens, BEAS-2B, 48 h”, the EC50 fell in the range of 100 to 1000 nM.

For the molecule `Cc1ccc(C(CC(=O)O)c2ccc3c(nnn3C)c2C)cc1CN1CCc2cnc(C(C)C)nc2C1` (stereo not drawn) [Example 11, Ammonium 3-(1,4-dimethyl-1H-benzo[d][1,2,3]triazol-5-yl)-3-(3-((2-isopropyl-5,6-dihydropyrido[3,4-d]pyrimidin-7(8H)-yl)methyl)-4-methylphenyl)propanoate], the EC50 (Homo sapiens, BEAS-2B, 48 h) lay within 1000 to 10000 nM.

As for `CC[C@@H]1CN(Cc2cc(C(CC(=O)O)c3ccc4c(nnn4C)c3C)ccc2C)Cc2c(F)cccc2O1` (stereo partly drawn) [Example 83, 3-(1,4-Dimethyl-1H-benzo[d][1,2,3]triazol-5-yl)-3-(3-(((R)-2-ethyl-6-fluoro-2,3-dihydrobenzo[f][1,4]oxazepin-4(5H)-yl)methyl)-4-methylphenyl)propanoic acid], under “Homo sapiens, BEAS-2B, 48 h”, the EC50 lay within 100 to 1000 nM.

As to `Cc1ccc(C(c2ccc3c(nnn3C)c2C)C(C)(C)C(=O)O)cc1Cn1ccnc1CC1CCCOCC1` (stereo not drawn) [Example 245, 3-(1,4-Dimethyl-1H-benzo[d][1,2,3]triazol-5-yl)-2,2-dimethyl-3-(4-methyl-3-((2-(oxepan-4-ylmethyl)-1H-imidazol-1-yl)methyl)phenyl)propanoic Acid], the EC50 (Homo sapiens, BEAS-2B, 48 h) lay in the range of 10 to 100 nM.

Turning to `CC[C@@H]1CN(Cc2cc([C@H](c3ccc4c(nnn4CC)c3C)[C@H](C)C(=O)O)ccc2C)Cc2cnccc2O1` [Example 197, (2S,3R)-3-(3-(((R)-2-Ethyl-2,3-dihydropyrido[3,4-f][1,4]oxazepin-4(5H)-yl)methyl)-4-methylphenyl)-3-(1-ethyl-4-methyl-1H-benzo[d][1,2,3]triazol-5-yl)-2-methylpropanoate, Sodium salt], the EC50 (Homo sapiens, BEAS-2B, 48 h) was in the range of 10 to 100 nM.

On to `CCC1CN(Cc2cc(C(CC(=O)O)c3ccc4c(nnn4C)c3C)ccc2C)Cc2cc(F)ccc2O1` (stereo not drawn) [Example 87, 3-(1,4-Dimethyl-1H-benzo[d][1,2,3]triazol-5-yl)-3-(3-((2-ehtyl-7-fluoro-2,3-dihydrobenzo[f][1,4]oxazepin-4(5H)-yl)methyl)-4-methylphenyl)propanoic acid], for which the EC50 (Homo sapiens, BEAS-2B, 48 h) was in the range of 10 to 100 nM.

Regarding `CC[C@@H]1CN(Cc2cc(C(CC(=O)O)c3cnc4c(nnn4C)c3C)ccc2C)Cc2ccccc2O1` (stereo partly drawn) [Example 47, 3-(3,7-Dimethyl-3H-[1,2,3]triazolo[4,5-b]pyridin-6-yl)-3-(3-(((R)-2-ethyl-2,3-dihydrobenzo[f][1,4]oxazepin-4(5H)-yl)methyl)-4-methylphenyl)propanoic Acid, Trifluoroacetic Acid Salt], the EC50 (Homo sapiens, BEAS-2B, 48 h) lay in the range of 100 to 1000 nM.

For the molecule `Cc1ccc([C@H](c2ccc3c(nnn3C)c2C)C(C)(C)C(=O)O)cc1Cn1ccnc1CC1CCCCCC1` [Example 125, (R)-3-(3-((2-(Cycloheptylmethyl)-1H-imidazol-1-yl)methyl)-4-methylphenyl)-3-(1,4-dimethyl-1H-benzo[d][1,2,3]triazol-5-yl)-2,2-dimethylpropanoate, Sodium salt], the EC50 (Homo sapiens, BEAS-2B, 48 h) fell in the range of 100 to 1000 nM.

In the case of `CC[C@@H]1CN(Cc2cc(C(CCc3cn(CC)nn3)C(C)C(=O)O)ccc2C)Cc2ccccc2O1` (single isomer, unassigned; isomer 1) [Example 118], the EC50 fell in the range of 1000 to 10000 nM.

As for `Cc1ccc(C(CC(=O)O)c2ccc3c(nnn3C)c2C)cc1Cn1ccnc1CN1CCCCC1` (stereo not drawn) [Example 154, 3-(1,4-dimethyl-1H-benzo[d][1,2,3]triazol-5-yl)-3-(4-methyl-3-((2-(piperidin-1-ylmethyl)-1H-imidazol-1-yl)methyl)phenyl)propanoic Acid, Trifluoroacetic Acid Salt], the EC50 (Homo sapiens, BEAS-2B, 48 h) lay in the range of 100 to 1000 nM.

Turning to `CCn1nnc2c(C)c([C@H](c3ccc(C)c(CN4Cc5ccccc5OC(C)(C)C4)c3)C(C)(C)C(=O)O)ccc21` (single isomer, unassigned; enantiomer b) [Example 207], the EC50 (Homo sapiens, BEAS-2B, 48 h) was 10 to 100 nM.

On to `CCn1nnc2c(F)c([C@H](CC(=O)O)c3ccc(C)c(CN4Cc5ccccc5OC(C)(C)C4)c3)ccc21` [Example 65, (R)-3-(3-((2,2-Dimethyl-2,3-dihydrobenzo[f][1,4]oxazepin-4(5H)-yl)methyl)-4-methylphenyl)-3-(1-ethyl-4-fluoro-1H-benzo[d][1,2,3]triazol-5-yl)propanoic Acid, Hydrochloride], for which the EC50 (Homo sapiens, BEAS-2B, 48 h) was 10 to 100 nM.

On to `CCn1cc(CCC(CC(=O)O)c2ccc(Cl)c(CN3Cc4cccnc4OC(C)(C)C3)c2)nn1` (stereo not drawn) [Example 233, 3-(4-Chloro-3-((2,2-dimethyl-2,3-dihydropyrido[3,2-f][1,4]oxazepin-4(5H)-yl)methyl)phenyl)-5-(1-ethyl-1H-1,2,3-triazol-4-yl)pentanoic Acid], for which, under “Homo sapiens, BEAS-2B, 48 h”, the EC50 is 1000 to 10000 nM.

As to `Cc1ccc(C(CCc2cn(C)nn2)CC(=O)O)cc1Cn1ccnc1CC1CCCCC1` (stereo not drawn) [Example 130, 3-(3-((2-(Cyclohexylmethyl)-1H-imidazol-1-yl)methyl)-4-methylphenyl)-5-(1-methyl-1H-1,2,3-triazol-4-yl)pentanoic Acid], the EC50 (Homo sapiens, BEAS-2B, 48 h) is 100 to 1000 nM.

`CC[C@@H]1CN(Cc2cc([C@@H](CC(=O)O)c3ccc4c(nnn4CC)c3Cl)ccc2C)Cc2ccccc2O1` [Example 67, (R)-3-(4-Chloro-1-ethyl-1H-benzo[d][1,2,3]triazol-5-yl)-3-(3-(((R)-2-ethyl-2,3-dihydrobenzo[f][1,4]oxazepin-4(5H)-yl)methyl)-4-methylphenyl)propanoate, Sodium Salt]: where the note is “Homo sapiens, BEAS-2B, 48 h”, the EC50 lay within 10 to 100 nM.

On to `CCC1c2cccn2CCN1Cc1cc(C(CC(=O)O)c2ccc3c(nnn3C)c2C)ccc1C` (stereo not drawn) [Example 19, 3-(1,4-dimethyl-1H-benzo[d][1,2,3]triazol-5-yl)-3-(3-((1-ethyl-3,4-dihdyropyrrolo[1,2-a]pyrazin-2(1H)-yl)methyl)-4-methylphenyl)propanoic acid, formic acid salt], for which the EC50 (Homo sapiens, BEAS-2B, 48 h) was in the range of 1000 to 10000 nM.

Regarding `CC[C@@H]1CN(Cc2cc([C@H](CC(=O)O)c3ccc4c(nnn4C)c3C)ccc2C)Cc2ccccc2O1` [Example 49, (S)-3-(1,4-Dimethyl-1H-benzo[d][1,2,3]triazol-5-yl)-3-(3-(((R)-2-ethyl-2,3-dihydrobenzo[f][1,4]oxazepin-4(5H)-yl)methyl)-4-methylphenyl)propanoic Acid, Formic Acid Salt], under “Homo sapiens, BEAS-2B, 48 h”, the EC50 was 100 to 1000 nM.

Take `Cc1ccc(C(CC(=O)NS(C)(=O)=O)c2ccc3c(nnn3C)c2C)cc1CN1Cc2ccccc2OC(C)(C)C1` (stereo not drawn) [Example 187, 3-(1,4-Dimethyl-1H-benzo[d][1,2,3]triazol-5-yl)-3-(3-((2,2-dimethyl-2,3-dihydrobenzo[f][1,4]oxazepin-4(5H)-yl)methyl)-4-methylphenyl)-N-(methylsulfonyl)propanamide]: the EC50 (Homo sapiens, BEAS-2B, 48 h) lay in the range of 100 to 1000 nM.

As to `CCn1nnc2c(C)c([C@H](c3ccc(C)c(CN4Cc5cnccc5OC(C)(C)C4)c3)[C@@H](C)C(=O)O)ccc21` [Example 196, (2R,3S)-3-(3-((2,2-Dimethyl-2,3-dihydropyrido[3,4-f][1,4]oxazepin-4(5H)-yl)methyl)-4-methylphenyl)-3-(1-ethyl-4-methyl-1H-benzo[d][1,2,3]triazol-5-yl)-2-methylpropanoic acid, Trifluoroacetic acid salt], under “Homo sapiens, BEAS-2B, 48 h”, the EC50 is 1 to 10 nM.

Regarding `CC[C@@H]1CN(Cc2cc(C(CCc3cn(CC)nn3)C(C)(C)C(=O)O)ccc2C)Cc2ncccc2O1` (single isomer, unassigned) [Example 251], the EC50 fell in the range of 1 to 10 nM.

For the molecule `Cc1ccc(C(c2ccc3c(nnn3C)c2C)C(C)(C)C(=O)O)cc1CN1Cc2cccc(F)c2OC(C)(C)C1` (stereo not drawn) [Example 35, 3-(1,4-Dimethyl-1H-benzo[d][1,2,3]triazol-5-yl)-3-(3-((9-fluoro-2,2-dimethyl-2,3-dihydrobenzo[f][1,4]oxaz-epin-4(5H)-yl)methyl)-4-methylphenyl)-2,2-dimethylpropanoic acid], the EC50 (Homo sapiens, BEAS-2B, 48 h) was 1 to 10 nM.

With `CCn1nnc2c(C)c([C@@H](c3ccc(C)c(CN4Cc5ccccc5OC(C)(C)C4)c3)[C@H](C)C(=O)O)ccc21` [Example 200, (2S,3R)-3-(3-((2,2-Dimethyl-2,3-dihydrobenzo[f][1,4]oxazepin-4(5H)-yl)methyl)-4-methylphenyl)-3-(1-ethyl-4-methyl-1H-benzo[d][1,2,3]triazol-5-yl)-2-methylpropanoic Acid, 2 Trifluoroacetic Acid Salt], under “Homo sapiens, BEAS-2B, 48 h”, the EC50 lay in the range of 10 to 100 nM.

For the molecule `CC[C@@H]1CN(Cc2cc([C@H](CC(=O)O)c3ccc4c(nnn4C)c3C)ccc2F)Cc2ccncc2O1` [Example 260, (S)-3-(1,4-dimethyl-1H-benzo[d][1,2,3]triazol-5-yl)-3-(3-(((R)-2-ethyl-2,3-dihydropyrido[4,3-f][1,4]oxazepin-4(5H)-yl)methyl)-4-fluorophenyl)propanoic acid], where the note is “Homo sapiens, BEAS-2B, 48 h”, the EC50 was in the range of 100 to 1000 nM.
